The assay concerns the target T1, Smo (Homo sapiens, UniProt Q99835).
T1 construct: expressed in transfected cells; host or cells: HEK293
As to the kind of experiment: Membrane recruitment (translocation) of βarr2-GFP, confocal imaging. It counts as cell-based.

T1 sequence (Q99835 28-787): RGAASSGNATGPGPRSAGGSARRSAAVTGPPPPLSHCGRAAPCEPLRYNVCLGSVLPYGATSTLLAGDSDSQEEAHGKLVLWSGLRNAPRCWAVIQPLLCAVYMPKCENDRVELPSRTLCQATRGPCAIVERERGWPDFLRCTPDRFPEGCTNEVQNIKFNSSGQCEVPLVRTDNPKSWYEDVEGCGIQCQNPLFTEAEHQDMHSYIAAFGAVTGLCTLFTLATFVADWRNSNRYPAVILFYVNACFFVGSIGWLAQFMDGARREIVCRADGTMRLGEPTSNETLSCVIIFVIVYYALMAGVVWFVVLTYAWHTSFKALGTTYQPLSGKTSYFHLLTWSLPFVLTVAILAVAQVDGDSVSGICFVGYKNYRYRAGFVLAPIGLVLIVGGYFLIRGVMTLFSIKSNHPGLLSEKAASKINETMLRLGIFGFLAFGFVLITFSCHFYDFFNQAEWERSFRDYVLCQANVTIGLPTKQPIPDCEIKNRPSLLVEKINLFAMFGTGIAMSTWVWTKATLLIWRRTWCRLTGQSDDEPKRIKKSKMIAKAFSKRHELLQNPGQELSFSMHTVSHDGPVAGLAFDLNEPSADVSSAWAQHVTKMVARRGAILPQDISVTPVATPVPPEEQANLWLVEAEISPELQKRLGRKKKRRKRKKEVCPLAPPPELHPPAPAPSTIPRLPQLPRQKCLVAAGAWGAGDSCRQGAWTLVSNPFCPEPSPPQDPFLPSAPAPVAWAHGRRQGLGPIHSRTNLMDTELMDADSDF
Source text: Localization of beta-arrestin2 green fluorescent protein (βarr2-GFP) to the plasma membrane in cells overexpressing Smo seen in FIG. 1: Confocal images of βarr2-GFP expressed alone (A) or with Myc-Smo (B) in Human embryonic kidney (HEK)293 cells. (C) Effects of Ptc, ShhN, and G protein coupled receptor kinase (GRK2) on recruitment of βarr2-GFP to the plasma membrane. βarr2-GFP was expressed with Myc-Smo (bar 1), Myc-Smo and FLAG-Ptc (bar 2), Myc-Smo and FLAG-Ptc (co-cultured with HEK293 expressing Sonic hedgehog (Shh)N-terminus, an active form of Shh (bar 3), or Myc-Smo and GRK2 (bar 4) in HEK293 cells. Data are presented as the percentage of βarr2-GFP-13 expressing cells with recruitment of βarr2-GFP and are the means±SEM of three independent experiments. *P<0.05 (compared with bar 1) and **P<0.005 (compared with bar 2) (unpaired t test).
Confocal images of βarr2-GFP expressed with FLAG-Ptc (A), FLAG-Ptc and Myc-Smo (B), and Myc-Smo (C and D) in HEK293 cells. Cells were left untreated (A to C) or treated with 8 μM cyclopamine (D) at 37° C. for 5 min. […] (F and G) Confocal images of cells stimulated with 0.3 μM SAG at 37° C. for 0 min (F) and 30 min (G). HEK293 cells were transfected with βarr2-GFP, FLAG-Ptc, Myc-Smo, and GRK2.

As for `CNC1CCC(N(Cc2cccc(-c3ccncc3)c2)C(=O)c2sc3ccccc3c2Cl)CC1` (centres unmarked) [SAG], the “Recruitment of βarr2-GFP to the plasma membrane under Ptc inhibition” value (HEK293 cells transfected with βarr2-GFP, FLAG-Ptc, Myc-Smo and GRK2, 0.3 μM SAG at 37° C., 30 min versus 0 min) is recorded as “relieves Ptc inhibition of recruitment of βarr2-GFP to the plasma membrane”.

As to `CC1=C2C[C@H]3[C@@H](CC=C4C[C@@H](O)CC[C@@]43C)[C@@H]2CC[C@]12O[C@@H]1C[C@H](C)CN[C@H]1[C@H]2C` [cyclopamine], the “Recruitment of βarr2-GFP to Smo” value (HEK293 cells expressing βarr2-GFP and Myc-Smo, 8 μM cyclopamine at 37° C. for 5 min, versus untreated) is given as “ablated”.
